# Key:
# Experiment in all cases: ScanEDGE kinase panel (DiscoverX)
# Format in all cases: binding
# ADCK3 = target: T1, ADCK3 (Homo sapiens, UniProt Q8NI60); details: read-out: % of control activity at 71 nM
# T1 construct: T7 phage fusion (most kinases) or DNA tag for qPCR (HEK-293-made kinases); purchased DiscoverX (Fremont, CA); host or cells: E. coli BL21-derived host (T7 phage) or HEK-293
# Experimental: (§1) ScanEDGE kinase assays paneling specificity across a panel of 96 representative kinases were performed by DiscoverX (Fremont, CA). For most assays, kinase-tagged T7 phage strains were grown in parallel in 24-well blocks in an E. coli host derived from the BL21 strain. Bacteria were grown to log phase and infected with T7 phage from frozen stock (MOI=0.4) and incubated with shaking at 32° C. until lysis (90-150 minutes). The lysates were centrifuged (6000×g) and filtered (0.2 μm) to remove cell debris. The remaining kinases were produced in HEK-293 cells and subsequently tagged with DNA for qPCR detection. […] The liganded beads were blocked with excess biotin and washing with blocking buffer (SeaBlock (Pierce), 1% BSA, 0.05% Tween 20, 1 mM DTT) to remove unbound ligand and to reduce non-specific phage binding. […] Test compounds were prepared as 40× stocks in 100% DMSO and directly diluted into the assay. All reactions were performed in polypropylene 384 well plates in a final volume of 40 μl. […] The kinase concentration in the eluates was measured by qPCR.
# ALK = target: T2, ALK (Homo sapiens, UniProt Q9UM73); details: read-out: % of control activity at 71 nM
# T2 construct: T7 phage fusion (most kinases) or DNA tag for qPCR (HEK-293-made kinases); purchased DiscoverX (Fremont, CA); host or cells: E. coli BL21-derived host (T7 phage) or HEK-293
# Experimental: as §1
# ARK5 = target: T3, ARK5 (Homo sapiens, UniProt O60285); details: read-out: % of control activity at 71 nM
# T3 construct: T7 phage fusion (most kinases) or DNA tag for qPCR (HEK-293-made kinases); purchased DiscoverX (Fremont, CA); host or cells: E. coli BL21-derived host (T7 phage) or HEK-293
# Experimental: as §1
# AURKA = target: T4, AURKA (Homo sapiens, UniProt O14965); details: read-out: % of control activity at 71 nM
# T4 construct: T7 phage fusion (most kinases) or DNA tag for qPCR (HEK-293-made kinases); purchased DiscoverX (Fremont, CA); host or cells: E. coli BL21-derived host (T7 phage) or HEK-293
# Experimental: as §1
# AXL = target: T5, AXL (Homo sapiens, UniProt P30530); details: read-out: % of control activity at 71 nM
# T5 construct: T7 phage fusion (most kinases) or DNA tag for qPCR (HEK-293-made kinases); purchased DiscoverX (Fremont, CA); host or cells: E. coli BL21-derived host (T7 phage) or HEK-293
# Experimental: as §1
# BMPR2 = target: T6, BMPR2 (Homo sapiens, UniProt Q13873); details: read-out: % of control activity at 71 nM
# T6 construct: T7 phage fusion (most kinases) or DNA tag for qPCR (HEK-293-made kinases); purchased DiscoverX (Fremont, CA); host or cells: E. coli BL21-derived host (T7 phage) or HEK-293
# Experimental: as §1
# CDK11 = target: T7, CDK11 (Homo sapiens, UniProt Q9BWU1); details: read-out: % of control activity at 71 nM
# T7 construct: T7 phage fusion (most kinases) or DNA tag for qPCR (HEK-293-made kinases); purchased DiscoverX (Fremont, CA); host or cells: E. coli BL21-derived host (T7 phage) or HEK-293
# Experimental: as §1
# CDK9 = target: T8, CDK9 (Homo sapiens, UniProt P50750); details: read-out: % of control activity at 71 nM
# T8 construct: T7 phage fusion (most kinases) or DNA tag for qPCR (HEK-293-made kinases); purchased DiscoverX (Fremont, CA); host or cells: E. coli BL21-derived host (T7 phage) or HEK-293
# Experimental: as §1
# CSF1R = target: T9, CSF1R (Homo sapiens, UniProt P07333); details: read-out: % of control activity at 71 nM
# T9 construct: T7 phage fusion (most kinases) or DNA tag for qPCR (HEK-293-made kinases); purchased DiscoverX (Fremont, CA); host or cells: E. coli BL21-derived host (T7 phage) or HEK-293
# Experimental: as §1
# DYRK1B = target: T10, DYRK1B (Homo sapiens, UniProt Q9Y463); details: read-out: % of control activity at 71 nM
# T10 construct: T7 phage fusion (most kinases) or DNA tag for qPCR (HEK-293-made kinases); purchased DiscoverX (Fremont, CA); host or cells: E. coli BL21-derived host (T7 phage) or HEK-293
# Experimental: as §1
# ERBB2 = target: T11, ERBB2 (Homo sapiens, UniProt P04626); details: read-out: % of control activity at 71 nM
# T11 construct: T7 phage fusion (most kinases) or DNA tag for qPCR (HEK-293-made kinases); purchased DiscoverX; host or cells: E. coli BL21-derived host (T7 phage) or HEK-293
# Experimental: as §1
# ERBB4 = target: T12, ERBB4 (Homo sapiens, UniProt Q15303); details: read-out: % of control activity at 71 nM
# T12 construct: T7 phage fusion (most kinases) or DNA tag for qPCR (HEK-293-made kinases); purchased DiscoverX; host or cells: E. coli BL21-derived host (T7 phage) or HEK-293
# Experimental: as §1
# FGFR2 = target: T13, FGFR2 (Homo sapiens, UniProt P21802); details: read-out: % of control activity at 71 nM
# T13 construct: T7 phage fusion (most kinases) or DNA tag for qPCR (HEK-293-made kinases); purchased DiscoverX; host or cells: E. coli BL21-derived host (T7 phage) or HEK-293
# Experimental: as §1
# FLT3 = target: T14, FLT3 (Homo sapiens, UniProt P36888); details: read-out: % of control activity at 71 nM
# T14 construct: T7 phage fusion (most kinases) or DNA tag for qPCR (HEK-293-made kinases); purchased DiscoverX; host or cells: E. coli BL21-derived host (T7 phage) or HEK-293
# Experimental: as §1
# INSR = target: T15, INSR (Homo sapiens, UniProt P06213); details: read-out: % of control activity at 71 nM
# T15 construct: T7 phage fusion (most kinases) or DNA tag for qPCR (HEK-293-made kinases); purchased DiscoverX; host or cells: E. coli BL21-derived host (T7 phage) or HEK-293
# Experimental: as §1
# LCK = target: T16, LCK (Homo sapiens, UniProt P06239); details: read-out: % of control activity at 71 nM
# T16 construct: T7 phage fusion (most kinases) or DNA tag for qPCR (HEK-293-made kinases); purchased DiscoverX; host or cells: E. coli BL21-derived host (T7 phage) or HEK-293
# Experimental: as §1
# LKB1 = target: T17, LKB1 (Homo sapiens, UniProt Q15831); details: read-out: % of control activity at 71 nM
# T17 construct: T7 phage fusion (most kinases) or DNA tag for qPCR (HEK-293-made kinases); purchased DiscoverX; host or cells: E. coli BL21-derived host (T7 phage) or HEK-293
# Experimental: as §1
# PAK1 = target: T18, PAK1 (Homo sapiens, UniProt Q13153); details: read-out: % of control activity at 71 nM
# T18 construct: T7 phage fusion (most kinases) or DNA tag for qPCR (kinases made in HEK-293); purchased DiscoverX; host or cells: E. coli BL21-derived host (T7 phage) or HEK-293
# Experimental: as §1
# PAK2 = target: T19, PAK2 (Homo sapiens, UniProt Q13177); details: read-out: % of control activity at 71 nM
# T19 construct: T7 phage fusion (most kinases) or DNA tag for qPCR (kinases made in HEK-293); purchased DiscoverX; host or cells: E. coli BL21-derived host (T7 phage) or HEK-293
# Experimental: as §1
# PAK4 = target: T20, PAK4 (Homo sapiens, UniProt O96013); details: read-out: % of control activity at 71 nM
# T20 construct: T7 phage fusion (most kinases) or DNA tag for qPCR (kinases made in HEK-293); purchased DiscoverX; host or cells: E. coli BL21-derived host (T7 phage) or HEK-293
# Experimental: as §1
# PIM1 = target: T21, PIM1 (Homo sapiens, UniProt P11309); details: read-out: % of control activity at 71 nM
# T21 construct: T7 phage fusion (most kinases) or DNA tag for qPCR (kinases made in HEK-293); purchased DiscoverX; host or cells: E. coli BL21-derived host (T7 phage) or HEK-293
# Experimental: as §1
# QSK (SIK3) = target: T22, QSK (SIK3) (Homo sapiens, UniProt Q9Y2K2); details: QSK refers to SIK3, read-out: % of control activity at 71 nM
# T22 construct: T7 phage fusion (most kinases) or DNA tag after HEK-293 expression; purchased DiscoverX (Fremont, CA), ScanEDGE; host or cells: T7 phage in E. coli BL21-derived host, or HEK-293
# Experimental: as §1
# RIOK2 = target: T23, RIOK2 (Homo sapiens, UniProt Q9BVS4); details: read-out: % of control activity at 71 nM
# T23 construct: T7 phage fusion (most kinases) or DNA tag after HEK-293 expression; purchased DiscoverX (Fremont, CA), ScanEDGE; host or cells: T7 phage in E. coli BL21-derived host, or HEK-293
# Experimental: as §1
# ROCK2 = target: T24, ROCK2 (Homo sapiens, UniProt O75116); details: read-out: % of control activity at 71 nM
# T24 construct: T7 phage fusion (most kinases) or DNA tag after HEK-293 expression; purchased DiscoverX (Fremont, CA), ScanEDGE; host or cells: T7 phage in E. coli BL21-derived host, or HEK-293
# Experimental: as §1
# SIK2 = target: T25, SIK2 (Homo sapiens, UniProt Q9H0K1); details: read-out: % of control activity at 71 nM
# T25 construct: T7 phage fusion (most kinases) or DNA tag after HEK-293 expression; purchased DiscoverX (Fremont, CA), ScanEDGE; host or cells: T7 phage in E. coli BL21-derived host, or HEK-293
# Experimental: as §1
# SNARK = target: T26, SNARK (Homo sapiens, UniProt Q9H093); details: read-out: % of control activity at 71 nM
# T26 construct: T7 phage fusion (most kinases) or DNA tag after HEK-293 expression; purchased DiscoverX (Fremont, CA), ScanEDGE; host or cells: T7 phage in E. coli BL21-derived host, or HEK-293
# Experimental: as §1
# SRC = target: T27, SRC (Homo sapiens, UniProt P12931); details: read-out: % of control activity at 71 nM
# T27 construct: T7 phage fusion (most kinases) or DNA tag after HEK-293 expression; purchased DiscoverX (Fremont, CA), ScanEDGE; host or cells: T7 phage in E. coli BL21-derived host, or HEK-293
# Experimental: as §1
# TRKA = target: T28, TRKA (Homo sapiens, UniProt P04629); details: read-out: % of control activity at 71 nM
# T28 construct: T7 phage fusion (most kinases) or DNA tag after HEK-293 expression; purchased DiscoverX (Fremont, CA), ScanEDGE; host or cells: T7 phage in E. coli BL21-derived host, or HEK-293
# Experimental: as §1
# ULK2 = target: T29, ULK2 (Homo sapiens, UniProt Q8IYT8); details: read-out: % of control activity at 71 nM
# T29 construct: T7 phage fusion (most kinases) or DNA tag after HEK-293 expression; purchased DiscoverX (Fremont, CA), ScanEDGE; host or cells: T7 phage in E. coli BL21-derived host, or HEK-293
# Experimental: as §1
# VEGFR2 = target: T30, VEGFR2 (Homo sapiens, UniProt P35968); details: read-out: % of control activity at 71 nM
# T30 construct: T7 phage fusion (most kinases) or DNA tag after HEK-293 expression; purchased DiscoverX (Fremont, CA), ScanEDGE; host or cells: T7 phage in E. coli BL21-derived host, or HEK-293
# Experimental: as §1
# YANK3 = target: T31, YANK3 (Homo sapiens, UniProt Q86UX6); details: read-out: % of control activity at 71 nM
# T31 construct: T7 phage fusion (most kinases) or DNA tag after HEK-293 expression; purchased DiscoverX (Fremont, CA), ScanEDGE; host or cells: T7 phage in E. coli BL21-derived host, or HEK-293
# Experimental: as §1
# T29 sequence (Q8IYT8 whole entry, the tested form may be a part): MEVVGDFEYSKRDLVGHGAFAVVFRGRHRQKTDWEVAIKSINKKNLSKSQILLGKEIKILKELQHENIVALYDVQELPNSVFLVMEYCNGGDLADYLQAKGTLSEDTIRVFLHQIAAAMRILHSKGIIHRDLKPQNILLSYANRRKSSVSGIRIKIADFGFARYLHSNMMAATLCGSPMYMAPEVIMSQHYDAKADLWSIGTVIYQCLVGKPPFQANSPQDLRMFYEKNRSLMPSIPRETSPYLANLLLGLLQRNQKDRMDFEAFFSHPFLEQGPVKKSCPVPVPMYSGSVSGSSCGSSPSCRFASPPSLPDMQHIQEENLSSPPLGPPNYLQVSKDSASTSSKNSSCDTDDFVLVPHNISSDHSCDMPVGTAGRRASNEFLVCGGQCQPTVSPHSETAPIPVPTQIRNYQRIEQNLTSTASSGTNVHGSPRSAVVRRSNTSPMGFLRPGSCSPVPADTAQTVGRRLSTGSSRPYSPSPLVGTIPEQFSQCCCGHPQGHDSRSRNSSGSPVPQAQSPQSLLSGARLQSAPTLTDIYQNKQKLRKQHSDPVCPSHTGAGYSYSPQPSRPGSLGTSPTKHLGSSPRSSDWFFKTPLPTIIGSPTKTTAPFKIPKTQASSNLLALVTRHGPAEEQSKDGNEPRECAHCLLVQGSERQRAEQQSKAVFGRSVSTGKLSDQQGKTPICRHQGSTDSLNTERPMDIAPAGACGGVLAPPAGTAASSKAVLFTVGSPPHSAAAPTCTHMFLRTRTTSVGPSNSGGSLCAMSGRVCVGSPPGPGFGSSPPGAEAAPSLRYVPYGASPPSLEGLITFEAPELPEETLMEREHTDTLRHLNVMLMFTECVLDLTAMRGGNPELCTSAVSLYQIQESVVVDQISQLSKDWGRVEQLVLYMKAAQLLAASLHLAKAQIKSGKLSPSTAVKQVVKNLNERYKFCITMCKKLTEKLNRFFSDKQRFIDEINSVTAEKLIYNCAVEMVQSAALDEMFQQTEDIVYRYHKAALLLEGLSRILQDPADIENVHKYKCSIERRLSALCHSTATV
# T22 sequence (Q9Y2K2 whole entry, the tested form may be a part): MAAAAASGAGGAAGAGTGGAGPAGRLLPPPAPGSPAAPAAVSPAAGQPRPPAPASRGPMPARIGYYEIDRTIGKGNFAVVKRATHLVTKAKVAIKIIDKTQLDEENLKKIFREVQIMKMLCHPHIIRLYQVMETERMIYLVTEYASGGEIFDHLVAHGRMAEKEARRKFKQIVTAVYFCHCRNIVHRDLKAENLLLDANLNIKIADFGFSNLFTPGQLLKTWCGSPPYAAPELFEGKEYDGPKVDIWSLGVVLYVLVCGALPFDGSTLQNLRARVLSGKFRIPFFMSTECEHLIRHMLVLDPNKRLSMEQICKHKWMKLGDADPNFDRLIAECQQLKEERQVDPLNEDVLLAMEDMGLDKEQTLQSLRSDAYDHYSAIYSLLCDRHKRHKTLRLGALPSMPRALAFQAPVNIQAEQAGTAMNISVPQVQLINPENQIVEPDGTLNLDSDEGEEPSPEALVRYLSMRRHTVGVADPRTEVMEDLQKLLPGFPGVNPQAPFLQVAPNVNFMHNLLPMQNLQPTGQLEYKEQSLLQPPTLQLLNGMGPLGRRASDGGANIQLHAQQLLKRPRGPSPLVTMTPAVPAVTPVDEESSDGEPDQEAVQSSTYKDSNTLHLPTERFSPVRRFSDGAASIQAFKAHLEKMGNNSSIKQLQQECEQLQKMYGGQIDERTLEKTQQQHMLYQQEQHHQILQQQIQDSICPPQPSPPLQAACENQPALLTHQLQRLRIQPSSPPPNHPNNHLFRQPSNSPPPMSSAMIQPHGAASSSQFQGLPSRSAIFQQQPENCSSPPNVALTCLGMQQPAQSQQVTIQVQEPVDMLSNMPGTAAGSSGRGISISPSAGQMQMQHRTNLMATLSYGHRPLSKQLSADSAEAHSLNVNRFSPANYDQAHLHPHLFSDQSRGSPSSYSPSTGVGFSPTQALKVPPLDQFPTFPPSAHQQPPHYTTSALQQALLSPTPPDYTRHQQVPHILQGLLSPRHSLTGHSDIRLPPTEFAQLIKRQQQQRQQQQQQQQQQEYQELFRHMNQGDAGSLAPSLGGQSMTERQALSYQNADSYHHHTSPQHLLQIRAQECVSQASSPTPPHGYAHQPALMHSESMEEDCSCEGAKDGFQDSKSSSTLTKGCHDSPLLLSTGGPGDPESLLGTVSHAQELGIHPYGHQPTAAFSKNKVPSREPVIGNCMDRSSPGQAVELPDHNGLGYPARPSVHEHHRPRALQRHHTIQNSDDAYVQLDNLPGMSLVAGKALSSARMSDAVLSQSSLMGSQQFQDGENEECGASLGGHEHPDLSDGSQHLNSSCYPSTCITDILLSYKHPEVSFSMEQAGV
# T11 sequence (P04626 23-1255): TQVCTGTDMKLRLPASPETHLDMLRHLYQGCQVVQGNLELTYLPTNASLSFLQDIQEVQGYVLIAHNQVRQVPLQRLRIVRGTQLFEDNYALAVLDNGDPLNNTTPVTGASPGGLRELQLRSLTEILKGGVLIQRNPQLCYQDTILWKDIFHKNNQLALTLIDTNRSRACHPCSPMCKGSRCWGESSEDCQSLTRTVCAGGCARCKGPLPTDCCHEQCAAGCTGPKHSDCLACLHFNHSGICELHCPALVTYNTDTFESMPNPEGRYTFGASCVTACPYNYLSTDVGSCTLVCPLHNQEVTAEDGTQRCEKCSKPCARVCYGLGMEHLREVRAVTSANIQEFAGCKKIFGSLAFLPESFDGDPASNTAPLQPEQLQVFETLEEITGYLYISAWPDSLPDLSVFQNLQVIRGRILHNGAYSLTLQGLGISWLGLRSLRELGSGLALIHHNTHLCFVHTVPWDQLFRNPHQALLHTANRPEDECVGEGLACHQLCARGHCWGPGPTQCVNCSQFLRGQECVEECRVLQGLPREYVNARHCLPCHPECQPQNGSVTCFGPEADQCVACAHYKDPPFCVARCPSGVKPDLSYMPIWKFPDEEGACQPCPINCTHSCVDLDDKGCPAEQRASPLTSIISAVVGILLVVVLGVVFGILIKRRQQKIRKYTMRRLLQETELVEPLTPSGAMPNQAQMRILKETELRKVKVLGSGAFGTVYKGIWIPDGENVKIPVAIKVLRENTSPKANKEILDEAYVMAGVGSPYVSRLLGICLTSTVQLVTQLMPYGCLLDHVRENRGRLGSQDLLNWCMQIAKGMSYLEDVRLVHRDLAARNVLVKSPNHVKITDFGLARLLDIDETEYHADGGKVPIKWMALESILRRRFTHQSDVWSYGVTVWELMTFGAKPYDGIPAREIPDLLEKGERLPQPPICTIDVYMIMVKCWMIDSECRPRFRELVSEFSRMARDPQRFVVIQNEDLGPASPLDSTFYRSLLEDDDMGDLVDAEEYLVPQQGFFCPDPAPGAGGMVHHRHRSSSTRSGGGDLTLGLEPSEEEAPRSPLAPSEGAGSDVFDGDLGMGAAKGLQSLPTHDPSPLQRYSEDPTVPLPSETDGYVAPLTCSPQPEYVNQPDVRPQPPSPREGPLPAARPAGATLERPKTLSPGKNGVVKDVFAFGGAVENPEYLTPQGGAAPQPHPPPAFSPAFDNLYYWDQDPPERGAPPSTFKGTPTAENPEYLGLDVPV
# T21 sequence (P11309 whole entry, the tested form may be a part): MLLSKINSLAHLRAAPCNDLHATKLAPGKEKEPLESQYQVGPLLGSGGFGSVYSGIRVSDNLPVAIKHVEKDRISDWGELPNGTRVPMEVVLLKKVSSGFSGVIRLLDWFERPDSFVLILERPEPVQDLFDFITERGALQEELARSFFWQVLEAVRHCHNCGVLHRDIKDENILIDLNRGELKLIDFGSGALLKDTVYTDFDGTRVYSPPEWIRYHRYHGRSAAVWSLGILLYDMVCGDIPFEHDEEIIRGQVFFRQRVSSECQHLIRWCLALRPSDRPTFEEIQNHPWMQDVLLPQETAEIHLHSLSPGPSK
# T4 sequence (O14965 whole entry, the tested form may be a part): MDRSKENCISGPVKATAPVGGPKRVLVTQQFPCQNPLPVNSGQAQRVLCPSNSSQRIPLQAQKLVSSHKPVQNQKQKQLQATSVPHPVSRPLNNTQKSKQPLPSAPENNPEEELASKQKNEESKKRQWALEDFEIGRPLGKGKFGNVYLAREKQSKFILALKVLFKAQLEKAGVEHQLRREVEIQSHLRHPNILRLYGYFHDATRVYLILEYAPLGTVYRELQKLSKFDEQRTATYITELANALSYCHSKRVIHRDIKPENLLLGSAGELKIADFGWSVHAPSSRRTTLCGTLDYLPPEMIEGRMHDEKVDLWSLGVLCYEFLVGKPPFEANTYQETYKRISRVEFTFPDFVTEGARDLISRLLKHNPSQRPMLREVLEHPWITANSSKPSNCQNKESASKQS
# T26 sequence (Q9H093 whole entry, the tested form may be a part): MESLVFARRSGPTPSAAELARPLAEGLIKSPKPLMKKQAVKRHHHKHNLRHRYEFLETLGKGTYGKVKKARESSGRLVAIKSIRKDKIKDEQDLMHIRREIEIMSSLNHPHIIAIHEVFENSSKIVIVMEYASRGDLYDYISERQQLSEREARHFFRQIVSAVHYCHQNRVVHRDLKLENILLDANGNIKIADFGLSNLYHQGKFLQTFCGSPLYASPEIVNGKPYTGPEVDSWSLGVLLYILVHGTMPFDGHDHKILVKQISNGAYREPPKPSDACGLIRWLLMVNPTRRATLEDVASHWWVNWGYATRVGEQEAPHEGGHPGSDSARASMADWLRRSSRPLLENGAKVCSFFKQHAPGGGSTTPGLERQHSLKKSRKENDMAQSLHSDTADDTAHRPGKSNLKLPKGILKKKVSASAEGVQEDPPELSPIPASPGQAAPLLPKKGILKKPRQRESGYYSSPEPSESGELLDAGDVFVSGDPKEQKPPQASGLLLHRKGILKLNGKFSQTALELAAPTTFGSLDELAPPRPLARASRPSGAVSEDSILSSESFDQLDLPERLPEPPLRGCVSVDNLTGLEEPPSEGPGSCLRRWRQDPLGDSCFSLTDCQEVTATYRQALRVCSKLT
compound,measurement,setting,value
COc1ccc(N2C(=O)N(c3c(C)cccc3C)Cc3cnc(Nc4ccc(C5CCN(C)CC5)c(OC)c4)nc32)c(OC)c1 [YKL-05-093],remaining binding at 0.071 µM,ADCK3,93%
same,remaining binding at 0.071 µM,ALK,23%
same,remaining binding at 0.071 µM,ARK5,77%
same,remaining binding at 0.071 µM,AURKA,12%
same,remaining binding at 0.071 µM,AXL,68%
same,remaining binding at 0.071 µM,BMPR2,87%
same,remaining binding at 0.071 µM,CDK11,88%
same,remaining binding at 0.071 µM,CDK9,88%
same,remaining binding at 0.071 µM,CSF1R,0.85%
same,remaining binding at 0.071 µM,DYRK1B,93%
same,remaining binding at 0.071 µM,ERBB2,3.5%
same,remaining binding at 0.071 µM,ERBB4,6.1%
same,remaining binding at 0.071 µM,FGFR2,8.9%
same,remaining binding at 0.071 µM,FLT3,20%
same,remaining binding at 0.071 µM,INSR,56%
same,remaining binding at 0.071 µM,LCK,0.75%
same,remaining binding at 0.071 µM,LKB1,85%
same,remaining binding at 0.071 µM,PAK1,6.6%
same,remaining binding at 0.071 µM,PAK2,75%
same,remaining binding at 0.071 µM,PAK4,88%
same,remaining binding at 0.071 µM,PIM1,89%
same,remaining binding at 0.071 µM,QSK (SIK3),5.3%
same,remaining binding at 0.071 µM,RIOK2,77%
same,remaining binding at 0.071 µM,ROCK2,70%
same,remaining binding at 0.071 µM,SIK2,10%
same,remaining binding at 0.071 µM,SNARK,6%
same,remaining binding at 0.071 µM,SRC,0%
same,remaining binding at 0.071 µM,TRKA,74%
same,remaining binding at 0.071 µM,ULK2,31%
same,remaining binding at 0.071 µM,VEGFR2,26%
same,remaining binding at 0.071 µM,YANK3,95%

# Reference: patent publication US12121521B2, “Uses of salt-inducible kinase (SIK) inhibitors for treating osteoporosis” (The General Hospital Corporation, priority 2016, dated 2024)
